Values joined by “and” are separate entries in the source; they are usually repeats but may differ in a detail not shown here. Identical values can stand only once. Inconclusive results and toxic doses are left out. The calls were made as follows: active = survival T/C of 150% or more; inactive = T/C below 125% in these data.
Test system: P388 leukemia ip, CD2F1 mice, survival T/C
Test: NCI In Vivo Anticancer Drug Screen. Data for tumor model P388 Leukemia (intraperitoneal) in CD2F1 (CDF1) mice
Details: endpoint: median survival time, higher = longer survival
Procedure, shortened: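 Mice carrying the transplanted tumor received test compound or vehicle. Survival was recorded in each group, and the value is the treated-group measurement divided by that of the vehicle-treated control group.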

[1] = dose: 50.0 mg/kg/injection, schedule: Q01DX009 (ip), vehicle: saline with Tween-80
[2] = dose: 60.0 mg/kg/injection, schedule: Q01DX005 (ip), vehicle: saline with Tween-80
[3] = dose: 120.0 mg/kg/injection, schedule: Q01DX005 (ip), vehicle: saline with Tween-80
[4] = dose: 240.0 mg/kg/injection, schedule: Q01DX005 (ip), vehicle: saline with Tween-80
[5] = dose: 50.0 mg/kg/injection, schedule: Q01DX005 (ip), vehicle: Klucel (hydroxypropylcellulose) (HPC)
[6] = dose: 100.0 mg/kg/injection, schedule: Q01DX005 (ip), vehicle: Klucel (hydroxypropylcellulose) (HPC)
[7] = dose: 200.0 mg/kg/injection, schedule: Q01DX005 (ip), vehicle: Klucel (hydroxypropylcellulose) (HPC)
[8] = dose: 100.0 mg/kg/injection, schedule: Q01DX001 (ip), vehicle: saline with Tween-80
[9] = dose: 200.0 mg/kg/injection, schedule: Q01DX001 (ip), vehicle: saline with Tween-80
[10] = dose: 400.0 mg/kg/injection, schedule: Q01DX001 (ip), vehicle: saline with Tween-80
[11] = dose: 100.0 mg/kg/injection, schedule: Q01DX009 (ip), vehicle: saline with Tween-80
[12] = dose: 200.0 mg/kg/injection, schedule: Q01DX009 (ip), vehicle: saline with Tween-80
[13] = dose: 60.0 mg/kg/injection, schedule: Q01DX005 (ip), vehicle: Klucel (hydroxypropylcellulose) (HPC)
[14] = dose: 120.0 mg/kg/injection, schedule: Q01DX005 (ip), vehicle: Klucel (hydroxypropylcellulose) (HPC)
[15] = dose: 240.0 mg/kg/injection, schedule: Q01DX005 (ip), vehicle: Klucel (hydroxypropylcellulose) (HPC)

Measured: T/C

O=C(CC(=O)C(F)(F)F)c1csc2ccccc12
inactive: dose: 12.5 mg/kg/injection, schedule: Q01DX009 (ip), vehicle: saline with Tween-80 95 % of control | dose: 12.5 mg/kg/injection, schedule: Q04DX003 (ip), vehicle: saline with Tween-80 100 % of control | dose: 25.0 mg/kg/injection, schedule: Q01DX009 (ip), vehicle: saline with Tween-80 100 % of control | dose: 25.0 mg/kg/injection, schedule: Q04DX003 (ip), vehicle: saline with Tween-80 100 % of control | [1] 109 % of control | dose: 50.0 mg/kg/injection, schedule: Q04DX003 (ip), vehicle: saline with Tween-80 109 % of control

O=c1[nH]c2c([N+](=O)[O-])cc(Cl)cc2nc1/C=C(\O)c1ccco1
inactive: [2] 101 % of control | [3] 89 % of control | [4] 92 % of control

O=C(O)C1C2CC3C(OC(=O)C31)C2Br (stereo not drawn)
inactive: [2] 100 % of control | [3] 97 % of control | [4] 96 % of control

COC(=O)C[C@@]1(C(=O)OC)[C@H](C(=O)OC)[C@@H](C(=O)OC)N(C(C)=O)N1C
inactive: [5] 105 % of control | [6] 105 % of control | dose: 100.0 mg/kg/injection, schedule: Q04DX002 (ip), vehicle: Klucel (hydroxypropylcellulose) (HPC) 104 % of control | [7] 103 % of control | dose: 200.0 mg/kg/injection, schedule: Q04DX002 (ip), vehicle: Klucel (hydroxypropylcellulose) (HPC) 95 % of control | dose: 400.0 mg/kg/injection, schedule: Q04DX002 (ip), vehicle: Klucel (hydroxypropylcellulose) (HPC) 103 % of control

CCc1c(CO)c(CO)c(-c2ccccc2)n1CCn1c(CC)c(CO)c(CO)c1-c1ccccc1
inactive: [8] 96 % of control | [9] 88 % of control | [10] 96 % of control

[N-]=[N+]=NC(=O)Nc1cccc(C(F)(F)F)c1
inactive: dose: 15.0 mg/kg/injection, schedule: Q01DX005 (ip), vehicle: Klucel + Tween-80 103 % of control | dose: 30.0 mg/kg/injection, schedule: Q01DX005 (ip), vehicle: Klucel + Tween-80 96 % of control | dose: 60.0 mg/kg/injection, schedule: Q01DX005 (ip), vehicle: Klucel + Tween-80 100 % of control and 93 % of control

CCCCC1(CCCCCCCCC(=O)OCC)OCCO1
inactive: [5] 96 % of control | [6] 97 % of control | [7] 97 % of control

COc1cc2c(cc1O)C(O)CCCC2 (stereo not drawn)
inactive: [1] 107 % of control | [11] 108 % of control | [12] 110 % of control

ON=C1CCCCCCC1
inactive: dose: 50.0 mg/kg/injection, schedule: Q01DX009 (ip), vehicle: suspension in saline 97 % of control | dose: 100.0 mg/kg/injection, schedule: Q01DX009 (ip), vehicle: suspension in saline 104 % of control | dose: 200.0 mg/kg/injection, schedule: Q01DX009 (ip), vehicle: suspension in saline 103 % of control | dose: 400.0 mg/kg/injection, schedule: Q01DX009 (ip), vehicle: suspension in saline 98 % of control

Cc1cc(OC2OC(CO)C(OC3OC(CO)C(O)C(O)C3O)C(O)C2O)c2c(c1)C(=O)c1cccc(O)c1C2=O (stereo not drawn)
inactive: [1] 104 % of control | [11] 104 % of control | [12] 105 % of control

COc1cc(OC)c(-c2oc3c(OC)c(OC)c(OC)c(OC)c3c(=O)c2OC)cc1OC
inactive: dose: 15.0 mg/kg/injection, schedule: Q01DX005 (ip), vehicle: Klucel (hydroxypropylcellulose) (HPC) 94 % of control | dose: 30.0 mg/kg/injection, schedule: Q01DX005 (ip), vehicle: Klucel (hydroxypropylcellulose) (HPC) 102 % of control | [13] 92 % of control | [14] 90 % of control

NC(=O)c1nn[nH]n1
inactive: dose: 50.0 mg/kg/injection, schedule: Q01DX009 (ip), vehicle: Klucel (hydroxypropylcellulose) (HPC) 97 % of control | dose: 100.0 mg/kg/injection, schedule: Q01DX009 (ip), vehicle: Klucel (hydroxypropylcellulose) (HPC) 100 % of control

O=[N+]([O-])c1ccc(S(=O)(=O)c2ccc([N+](=O)[O-])cc2)cc1
inactive: dose: 6.25 mg/kg/injection, schedule: Q04DX003 (ip), vehicle: suspension in saline 100 % of control | dose: 12.5 mg/kg/injection, schedule: Q04DX003 (ip), vehicle: suspension in saline 100 % of control | dose: 25.0 mg/kg/injection, schedule: Q04DX003 (ip), vehicle: suspension in saline 108 % of control | dose: 50.0 mg/kg/injection, schedule: Q04DX003 (ip), vehicle: suspension in saline 106 % of control

COc1ccc2c(c1OC)CN1CCc3cc4c(cc3C1C2)OCO4 (stereo not drawn)
inactive: [5] 105 % of control and 91 % of control | [6] 100 % of control and 94 % of control | [7] 96 % of control and 94 % of control

O=C1OC2(C=C(O)C1=O)CCCCC2
inactive: [13] 106 % of control | [14] 107 % of control | [15] 116 % of control

COC1=C(N)C(=O)c2cccnc2C1=O
inactive: dose: 3.13 mg/kg/injection, schedule: Q01DX009 (ip), vehicle: DMSO 92 % of control | dose: 6.25 mg/kg/injection, schedule: Q01DX009 (ip), vehicle: DMSO 92 % of control | dose: 12.5 mg/kg/injection, schedule: Q01DX009 (ip), vehicle: DMSO 100 % of control | dose: 25.0 mg/kg/injection, schedule: Q01DX009 (ip), vehicle: DMSO 109 % of control

C/C(=N/NC(N)=O)c1cccc(/C(C)=N/NC(N)=O)n1.[Cl][Zn][Cl]
inactive: dose: 6.25 mg/kg/injection, schedule: Q01DX009 (ip), vehicle: saline 103 % of control | dose: 12.5 mg/kg/injection, schedule: Q01DX009 (ip), vehicle: saline 102 % of control | dose: 25.0 mg/kg/injection, schedule: Q01DX009 (ip), vehicle: saline 105 % of control

O=[N+]([O-])c1ccc2c(c1)SC1=NN3C(O)COC(OCc4ccccc4)C3N12 (stereo not drawn)
inactive: dose: 100.0 mg/kg/injection, schedule: Q04DX002 (ip), vehicle: saline 97 % of control | dose: 200.0 mg/kg/injection, schedule: Q04DX002 (ip), vehicle: saline 100 % of control | dose: 400.0 mg/kg/injection, schedule: Q04DX002 (ip), vehicle: saline 93 % of control

NC(=S)N/N=C/c1c(Br)nc2n1CCS2
inactive: dose: 100.0 mg/kg/injection, schedule: Q01DX001 (ip), vehicle: Klucel (hydroxypropylcellulose) (HPC) 99 % of control | dose: 200.0 mg/kg/injection, schedule: Q01DX001 (ip), vehicle: Klucel (hydroxypropylcellulose) (HPC) 92 % of control | dose: 400.0 mg/kg/injection, schedule: Q01DX001 (ip), vehicle: Klucel (hydroxypropylcellulose) (HPC) 93 % of control

c1cc[n+](-[b-]2ccc3ccccc3c2)cc1
inactive: [8] 94 % of control | [9] 108 % of control | [10] 99 % of control

CC(=O)OCN(C)N=Nc1ccc(C(N)=O)cc1
inactive: [13] 92 % of control | [14] 95 % of control | [15] 95 % of control

O=C1C2CCCC1C(c1ccccc1Cl)NC2c1ccccc1Cl (stereo not drawn)
inactive: dose: 100.0 mg/kg/injection, schedule: Q04DX003 (ip), vehicle: saline 89 % of control | dose: 200.0 mg/kg/injection, schedule: Q04DX003 (ip), vehicle: saline 96 % of control | dose: 400.0 mg/kg/injection, schedule: Q04DX003 (ip), vehicle: saline 94 % of control

CCCCCC(=O)O[C@H]1CC[C@@H]2[C@H]1[C@@H]1CC[C@H]3O[C@]31C2(C)C
inactive: [13] 111 % of control | [14] 111 % of control | [15] 121 % of control

— PubChem BioAssay AID330 (DTP/NCI, 2004)
